Experimental data from the Bradley open melting point set (2014).
“And” between values parts separate entries of the source, which are not always exact repeats. Identical values can stand only once.

SMILES	melting point
Cc1ccccc1C(=O)O [o-toluic_acid]	105 °C
Cc1ccccc1C#N [o-tolunitrile]	-14 °C
Cc1ccccc1C [o-xylene]	-25 °C
O=C1CCC2C3CCC(=O)C3C12 (configuration not stated) [octahydrocyclobuta[1,2-a:3,4-a']dicyclopentene-1,6-dione]	67 °C
CCCCCCCC(=O)O [octanoic_acid]	17 °C
CCCCCCCCN [octylamine]	0 °C
CCCCCCCC/C=CCCCCCCCC(=O)O [oleic acid]	14 °C
O=P(O)(O)O [orthophosphoric acid]	20 °C
O=C1c3c(N(\C=C1\C(=O)O)CC)cc2OCOc2c3 [oxolinic acid]	315 °C
N#CCc1ccc(CC#N)cc1 [p-Xylylene dicyanide]	96 °C
CC(=O)c1ccc(-c2ccccc2)cc1 [p-acetylbiphenyl]	122 °C
Nc1ccc(C(=O)O)cc1 [p-aminobenzoic acid]	189 °C
Clc1ccc(Br)cc1 [p-bromochlorobenzene]	67 °C
CC(C)c1ccc(Br)cc1 [p-bromocumene]	-22 °C
Cc1ccc(C(C)C)cc1 [p-cymene]	-68 °C
C=C(C)c1ccc(C(=C)C)cc1 [p-diisopropenylbenzene]	66 °C
CN(C)c1ccc(C=O)cc1 [p-dimethylaminobenzaldehyde]	75 °C
CCOc1ccc(N)cc1 [p-ethoxyaniline]	4 °C
O=Cc1ccc(C(=O)O)cc1 [p-formyl_benzoic_acid]	247 °C
O=Cc1ccc(CO)cc1 [p-hydroxymethyl_benzaldehyde]	47 °C
O=C(O)c1ccc(CO)cc1 [p-hydroxymethyl_benzoic_acid]	182 °C
CC(=O)c1ccc(C)cc1 [p-methylacetophenone]	24 °C
NC(=O)c1ccc([N+](=O)[O-])cc1 [p-nitrobenzamide]	201 °C
N#CCc1ccc([N+](=O)[O-])cc1 [p-nitrophenylacetonitrile]	116 °C

SMILES	melting point
Cc1ccc([N+](=O)[O-])cc1 [p-nitrotoluene]	54 °C
CCOc1ccc(N)cc1 [p-phenetidine]	3 °C
CNC(=O)c1ccc(-c2ccccc2)cc1 [p-phenyl-n-methylbenzamide]	86 °C
Oc1ccc(-c2ccccc2)cc1 [p-phenylphenol]	167 °C
C=Cc1ccc(-c2ccccc2)cc1 [p-phenylstyrene]	119 °C
Cc1ccc(S(N)(=O)=O)cc1 [p-toluenesulfonamide]	139 °C
Cc1ccc(C(=O)O)cc1 [p-toluic_acid]	182 °C
Cc1ccc(N)cc1 [p-toluidine]	44 °C
Cc1ccc(C#N)cc1 [p-tolunitrile]	28 °C
Cc1ccc(OC(=O)c2ccccc2)cc1 [p-tolyl_benzoate]	70 °C
Cc1ccc(CC#N)cc1 [p-tolylacetonitrile]	18 °C
C=Cc1ccc(N)cc1 [p-vinylaniline]	26 °C
Cc1ccc(C)cc1 [p-xylene]	13 °C
CC(=O)Nc1ccc(O)cc1 [paracetamol]	169 °C
CCCCCCCCCCCCCCC [pentadecane]	10 °C
O=C(O)c1c(F)c(F)c(F)c(F)c1F [pentafluorobenzoic acid]	102 °C
Oc1c(F)c(F)c(F)c(F)c1F [pentafluorophenol]	34 °C
NNc1c(F)c(F)c(F)c(F)c1F [pentafluorophenylhydrazine]	76 °C
CCCCC(=O)O [pentanoic acid] [listing 1 of 2 here]	-33.9 °C and -33.7 °C
CCCCC(=O)O [pentanoic acid] [listing 2 of 2 here]	-34 °C
CCCC(C)C1(CC)C(=O)NC(=O)NC1=O (configuration not stated) [pentobarbital]	130 °C
N#Cc1ccc2c(c1)N(CCCN1CCC(O)CC1)c1ccccc1S2 [perciyazine]	116 °C
OCCN1CCN(CCCN2c3ccccc3Sc3ccc(Cl)cc32)CC1 [perphenazine]	96.9 °C
